Experiments:
[1] = tested on: wild oat; test: Test B pre/postemergence wild oat; assay type: in vivo, Avena fatua
Outline: (§1)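 Test chemicals in a non-phytotoxic solvent mixture with surfactant were sprayed preemergence onto planted seeds and postemergence onto plants 2 to 18 cm tall (1- to 4-leaf stage). After twelve to sixteen days in a greenhouse, injury was visually rated against untreated controls from 0 (no effect) to 10 (complete control).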

[2] = tested on: duck salad; test: Test B flood test duck salad; assay type: in vivo, Heteranthera limosa
Outline: (§2)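 Plants were grown to the 2-leaf stage before treatment with test chemical, then held in a greenhouse for twelve to sixteen days. Injury was visually rated against untreated controls on a 0–10 scale, where 0 is no effect and 10 is complete control.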

[3] = tested on: crabgrass; test: Test B pre/postemergence crabgrass; assay type: in vivo, Digitaria sanguinalis
Outline: as §1

[4] = tested on: surinam grass; test: Test B pre/postemergence surinam grass; assay type: in vivo, Brachiaria decumbens
Outline: as §1

[5] = tested on: smallflower flatsedge; test: Test B flood test smallflower flatsedge; assay type: in vivo, Cyperus difformis
Outline: as §2

[6] = tested on: velvetleaf; test: Test B pre/postemergence velvetleaf; assay type: in vivo, Abutilon theophrasti
Outline: as §1

[7] = tested on: pigweed; test: Test B pre/postemergence pigweed; assay type: in vivo, Amaranthus retroflexus
Outline: as §1

[8] = tested on: rape; test: Test B pre/postemergence rape; assay type: in vivo, Brassica napus
Outline: as §1

[9] = tested on: sugar beet; test: Test B pre/postemergence sugar beet; assay type: in vivo, Beta vulgaris
Outline: as §1

[10] = tested on: cocklebur; test: Test B pre/postemergence cocklebur; assay type: in vivo, Xanthium strumarium
Outline: as §1

[11] = tested on: morningglory; test: Test B pre/postemergence morningglory; assay type: in vivo, Ipomoea hederacea
Outline: as §1

[12] = tested on: wheat; test: Test B pre/postemergence wheat; assay type: in vivo, Triticum aestivum
Outline: as §1

[13] = tested on: purple nutsedge; test: Test B pre/postemergence purple nutsedge; assay type: in vivo, Cyperus rotundus
Outline: as §1

[14] = tested on: bedstraw; test: Test B pre/postemergence bedstraw; assay type: in vivo, Galium aparine; conditions: scale of 0 to 10 where 0 is no effect and 10 is complete control
Outline: as §1

[15] = tested on: corn; test: Test B pre/postemergence corn; assay type: in vivo, Zea mays
Outline: as §1

[16] = tested on: blackgrass; test: Test B pre/postemergence blackgrass; assay type: in vivo, Alopecurus myosuroides
Outline: as §1

[17] = Postemergence, Rate 250 g/ha, scale 0 to 10, 0 is no effect, 10 is complete control
[18] = Postemergence, Rate 500 g/ha, scale of 0 to 10 where 0 is no effect and 10 is complete control
[19] = Preemergence, Rate 62 g/ha, scale 0 to 10 (0 no effect, 10 complete control)
[20] = Preemergence, Rate 125 g/ha, scale of 0 to 10 where 0 is no effect and 10 is complete control
[21] = Preemergence, Rate 250 g/ha, scale of 0 to 10 where 0 is no effect and 10 is complete control
[22] = Preemergence, Rate 500 g/ha, scale of 0 to 10 where 0 is no effect and 10 is complete control
[23] = Rate 62 g/ha, Postemergence, scale of 0 to 10 where 0 is no effect and 10 is complete control
[24] = Rate 62 g/ha, flood test species, Pre-emergence, visual evaluation after twelve to sixteen days
[25] = Rate 125 g/ha, under heading Pre-emergence, flood test species, visual evaluation after twelve to sixteen days
[26] = Rate 250 g/ha, Pre-emergence, flood-test species, scale 0 to 10, 0 is no effect, 10 is complete control
[27] = Rate 500 g/ha, Pre-emergence, flood test species, scale 0 to 10 (0 no effect, 10 complete control)
[28] = Postemergence, Rate 125 g/ha, scale 0 to 10, 0 is no effect, 10 is complete control

CC(C)N(C(=O)n1oc(=O)n(C(CF)CF)c1=O)c1ccc(F)cc1 [Compound 390]
8: Plant response rating, Crabgrass [3, 19] | B. signalgrass plant response rating [4, 18] | Velvetleaf plant response rating [6, 18] | Plant response rating, Redroot pigweed [7, 19] | Rape plant response rating [8, 21] | Rape plant response rating [8, 22] | Sugarbeets plant response rating [9, 21] | Sugarbeets plant response rating [9, 22] | Wheat plant response rating [12, 21] | Blackgrass plant response rating [16, 23]
10: Wild oats plant response rating [1, 21] | Wild oats plant response rating [1, 22] | Crabgrass plant response rating [3, 21] | Crabgrass plant response rating [3, 22] | B. signalgrass plant response rating [4, 22] | Redroot pigweed plant response rating [7, 21] | Redroot pigweed plant response rating [7, 22] | Plant response rating, Rape [8, 17] | Rape plant response rating [8, 18] | Blackgrass plant response rating [16, 22]
6: Plant response rating, Wild oats [1, 20] | Velvetleaf plant response rating [6, 21] | Morningglory plant response rating [11, 21] | Plant response rating, Blackgrass [16, 19]
5: Plant response rating, B. signalgrass [4, 28] | Plant response rating, B. signalgrass [4, 17] | Plant response rating, B. signalgrass [4, 20] | Plant response rating, Sugarbeets [9, 17] | Plant response rating, Sugarbeets [9, 19]
1: Plant response rating, B. signalgrass [4, 19]
0: Wild oats plant response rating [1, 23] | Plant response rating, Ducksalad (0 to 10 scale, 0 is no effect, 10 is complete control) [2, 24] | Ducksalad plant response rating (0 to 10 scale, 0 is no effect, 10 is complete control) [2, 25] | Ducksalad plant response rating [2, 26] | Plant response rating, S. Flatsedge (0 to 10 scale, 0 is no effect, 10 is complete control) [5, 24] | S. Flatsedge plant response rating (0 to 10 scale, 0 is no effect, 10 is complete control) [5, 25] | S. Flatsedge plant response rating [5, 26] | Velvetleaf plant response rating [6, 23] | Plant response rating, Rape [8, 19] | Sugarbeets plant response rating [9, 23] | Plant response rating, Cocklebur [10, 28] | Plant response rating, Cocklebur [10, 19] | Plant response rating, Cocklebur [10, 20] | Cocklebur plant response rating [10, 23] | Plant response rating, Morningglory [11, 19] | Plant response rating, Wheat [12, 19] | Wheat plant response rating [12, 23] | Plant response rating, Nutsedge [13, 19] | Plant response rating, Nutsedge [13, 20] | Nutsedge plant response rating [13, 21] | Nutsedge plant response rating [13, 23] | Plant response rating, Bedstraw ([14]; Preemergence, Rate 125 g/ha) | Plant response rating, Corn [15, 28] | Plant response rating, Corn [15, 17] | Corn plant response rating [15, 18] | Plant response rating, Corn [15, 19] | Corn plant response rating [15, 23]
9: Wild oats plant response rating [1, 18] | Crabgrass plant response rating [3, 18] | Plant response rating, Crabgrass [3, 20] | B. signalgrass plant response rating [4, 21] | Plant response rating, Redroot pigweed [7, 17] | Redroot pigweed plant response rating [7, 18] | Plant response rating, Redroot pigweed [7, 20] | Morningglory plant response rating [11, 18] | Wheat plant response rating [12, 22] | Plant response rating, Blackgrass [16, 17] | Blackgrass plant response rating [16, 18] | Plant response rating, Blackgrass [16, 20] | Blackgrass plant response rating [16, 21]
2: Crabgrass plant response rating [3, 23] | B. signalgrass plant response rating [4, 23] | Plant response rating, Velvetleaf [6, 19] | Redroot pigweed plant response rating [7, 23] | Plant response rating, Rape [8, 20] | Cocklebur plant response rating [10, 21] | Morningglory plant response rating [11, 23] | Nutsedge plant response rating [13, 22]
3: Plant response rating, Wild oats [1, 19] | Ducksalad plant response rating [2, 27] | Plant response rating, Cocklebur [10, 17] | Plant response rating, Morningglory [11, 20] | Plant response rating, Wheat [12, 17] | Plant response rating, Nutsedge [13, 17] | Plant response rating, Corn [15, 20]
4: Plant response rating, Velvetleaf [6, 20] | Plant response rating, Wheat [12, 20]
7: Plant response rating, Wild oats [1, 17] | Plant response rating, Crabgrass [3, 28] | Plant response rating, Crabgrass [3, 17] | S. Flatsedge plant response rating [5, 27] | Plant response rating, Velvetleaf [6, 17] | Velvetleaf plant response rating [6, 22] | Rape plant response rating [8, 23] | Sugarbeets plant response rating [9, 18] | Plant response rating, Sugarbeets [9, 20] | Cocklebur plant response rating [10, 18] | Plant response rating, Morningglory [11, 17] | Morningglory plant response rating [11, 22] | Wheat plant response rating [12, 18] | Bedstraw plant response rating ([14]; Postemergence, Rate 500 g/ha) | Corn plant response rating [15, 22]
